Structures are written as SMILES.

Series [1] concerns the target T1, UGT1A6 (Homo sapiens, UniProt P19224).
T1 sequence (P19224 27-532): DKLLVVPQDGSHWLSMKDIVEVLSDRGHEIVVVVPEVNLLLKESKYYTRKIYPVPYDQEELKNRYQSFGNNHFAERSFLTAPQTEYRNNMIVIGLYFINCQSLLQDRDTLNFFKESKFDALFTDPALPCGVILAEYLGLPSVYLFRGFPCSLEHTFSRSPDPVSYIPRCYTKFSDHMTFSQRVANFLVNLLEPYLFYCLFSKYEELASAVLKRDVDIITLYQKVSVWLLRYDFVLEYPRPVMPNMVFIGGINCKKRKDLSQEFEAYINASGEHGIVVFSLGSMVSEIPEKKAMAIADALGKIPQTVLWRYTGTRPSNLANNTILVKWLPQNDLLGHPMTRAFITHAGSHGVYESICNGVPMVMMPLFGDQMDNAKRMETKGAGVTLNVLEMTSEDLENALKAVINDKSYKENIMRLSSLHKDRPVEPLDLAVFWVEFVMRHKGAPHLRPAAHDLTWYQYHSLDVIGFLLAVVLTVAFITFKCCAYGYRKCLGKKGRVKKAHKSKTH
Nature of the series: Glucuronide production in resting S. cerevisiae AH22 cells co-expressing UDPGDH and UGT1A6. The arrangement: expressed in transfected cells; host or cells: Saccharomyces cerevisiae AH22. Format: cell-based. Here is the method:
(§1) Each phase was analyzed by UPLC system.
Time course of conversion in the transformant with the highest activity of glucuronidation (AH22: pAUR/At.UDPGDH+pGYR/hUGT1A6) was examined (FIG. 6).
Glucose concentration dependence of conversion in the transformant with the highest activity of glucuronidation (AH22: pAUR/At.UDPGDH+pGYR/hUGT1A6) was examined (FIG. 7).

Series [2] concerns the target T2, hUGT1A1 (Homo sapiens, UniProt P22309).
T2 sequence (P22309 28-533): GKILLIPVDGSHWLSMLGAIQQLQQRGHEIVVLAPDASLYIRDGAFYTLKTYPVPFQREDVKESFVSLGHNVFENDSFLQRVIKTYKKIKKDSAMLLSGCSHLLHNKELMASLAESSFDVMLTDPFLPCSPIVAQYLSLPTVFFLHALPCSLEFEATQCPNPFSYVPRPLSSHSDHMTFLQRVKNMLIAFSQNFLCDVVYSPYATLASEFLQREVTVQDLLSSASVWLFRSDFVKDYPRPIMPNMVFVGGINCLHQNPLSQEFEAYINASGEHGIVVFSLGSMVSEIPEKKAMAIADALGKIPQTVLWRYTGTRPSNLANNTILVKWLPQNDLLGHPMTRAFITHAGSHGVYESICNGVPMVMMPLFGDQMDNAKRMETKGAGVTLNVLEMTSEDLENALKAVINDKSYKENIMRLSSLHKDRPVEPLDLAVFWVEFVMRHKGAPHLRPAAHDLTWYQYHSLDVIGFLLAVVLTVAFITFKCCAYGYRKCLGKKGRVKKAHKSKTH
To be noted: 24 h, 0.2 mM, pH 7.4.
Description: (§2) To confirm the production of 7-hydroxycoumarine glucuronide in the resting yeast cells containing UDPGDH and UGT, transformants were cultivated in selection medium at 30° C., 48 hrs, and the resultant yeast cells were suspended with appropriate buffer solution containing 0.1-1 mM 7-hydroxycoumarine and 1-8% (w/v) glucose. After incubation at 30° C., 24 hrs, 2-fold volume of chloroform:methanol (3:1, v/v) was added to reaction medium containing yeast cells. Centrifugation of extracts was separated to upper water and lower organic phase. Lower organic phase were evaporated and redissolved in 200 μl acetonitrile. Each phase was analyzed by UPLC system. Condition of analysis are described below; column: Cosmosil 2.5C18-MS-II (2.0 mm×100 mm, nacalai tesque), flow rate 0.5 ml/min, detection 320 nm, temperature 45° C. Condition of gradient elution: water-acetonitrile with 0.5% (v/v) trifluoroacetic acid, 10% (v/v) acetonitrile (4 min), 10-70% acetonitrile (6 min), 70-10% acetonitrile (2 min), 10% acetonitrile (4 min).
(§3) To confirm the production of quercetin glucuronide in the resting yeast cells containing UDPGDH and UGT (pAUR/At.UDPGDH+pGYR/hUGT1A1), transformants were cultivated in selection medium at 30° C., 48 hrs, and the resultant yeast cells were suspended with 0.1 M potassium phosphate buffer (pH 7.4) containing 0.2 mM quercetin and 8% (w/v) glucose. After incubation at 30° C., 24 hrs, 2-fold volume of chloroform:methanol (3:1, v/v) was added to reaction medium containing yeast cells. Centrifugation of extracts was separated to upper water and lower organic phase. Lower organic phase were evaporated and redissolved in 200 μl acetonitrile. Quercetin glucuronides in yeast cells was isolated and detected by WAKOPAK™ Navi C30-5 (3 mm×150 mm, Wako Chemical)-column-HPLC system with followed condition; flow rate; 0.4 ml/min, detection; 370 nm, temperature 37° C. Condition of gradient elution: water-acetonitrile with 0.5% (v/v) phosphoric acid, 18% (v/v) acetonitrile (10 min), 18-55% acetonitrile (10 min), 55% acetonitrile (5 min).
(§4) To compare the production ability of glucuronide in budding (Saccharomyces cerevisiae) and fission yeast (Schizosaccharomyces pombe) containing UDPGDH and UGT, several transformants (No. 4 in Table 2 and transformant with N-terminal modified UGT1A1) were selected for the assay. These transformants were cultivated in selection medium at 30° C., 48 hrs, and the resultant yeast cells were suspended with appropriate buffer solution containing 0.5 mM 4-methylumberrferone and 8% (w/v) glucose. After incubation at 30° C., 24 hrs, 2-fold volume of chloroform:methanol (3:1, v/v) was added to reaction medium containing yeast cells. Centrifugation of extracts was separated to upper water and lower organic phase. Lower organic phase were evaporated and redissolved in 200 μl acetonitrile. Each phase was analyzed by UPLC system.
(§5) Condition of analysis are described below; column: COSMOSIL™ 2.5C18-MS-II (2.0 mm×100 mm, Nacalai Tesque), flow rate 0.5 ml/min, detection 320 nm, temperature 45° C. Condition of gradient elution: water-acetonitrile with 0.1% (v/v) trifluoroacetic acid, 10% acetonitrile (4 min), 10-70% acetonitrile (6 min), 70-10% acetonitrile (2 min), 10% acetonitrile (3 min).

In series [3] the target is T3, rat UDP-glucose dehydrogenase (Rattus norvegicus, UniProt O70199).
T3 construct: confirmed the gene product from GenBank Acc; ID NO: 9; expressed in transfected cells; host or cells: Saccharomyces cerevisiae AH22
T3 sequence (O70199 1-493): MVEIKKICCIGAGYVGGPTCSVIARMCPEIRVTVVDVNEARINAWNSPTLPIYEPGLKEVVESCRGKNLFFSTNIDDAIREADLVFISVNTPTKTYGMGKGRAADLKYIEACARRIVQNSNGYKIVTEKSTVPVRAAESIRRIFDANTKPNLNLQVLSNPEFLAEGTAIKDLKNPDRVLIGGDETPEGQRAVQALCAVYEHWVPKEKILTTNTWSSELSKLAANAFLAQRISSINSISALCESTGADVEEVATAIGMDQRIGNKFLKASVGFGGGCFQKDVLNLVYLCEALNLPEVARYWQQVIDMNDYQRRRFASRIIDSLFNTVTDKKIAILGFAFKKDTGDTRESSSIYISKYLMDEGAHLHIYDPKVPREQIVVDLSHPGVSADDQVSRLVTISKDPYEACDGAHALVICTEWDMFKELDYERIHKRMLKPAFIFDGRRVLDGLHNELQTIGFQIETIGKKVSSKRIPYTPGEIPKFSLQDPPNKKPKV
Nature of the series: Production of UDP-glucuronic acid in yeast cells transformed with rat UDP-glucose dehydrogenase gene. Format: cell-based. To be noted: estimation of sugar nucleotide, FIG. 4 line C. The source says: Upper water phase of extracts were separated by centrifugation.

For series [4], the target named is T4, hUGT1A9 (Homo sapiens, UniProt O60656).
T4 construct: expressed in transfected cells; host or cells: Saccharomyces cerevisiae AH22
T4 sequence (O60656 26-530): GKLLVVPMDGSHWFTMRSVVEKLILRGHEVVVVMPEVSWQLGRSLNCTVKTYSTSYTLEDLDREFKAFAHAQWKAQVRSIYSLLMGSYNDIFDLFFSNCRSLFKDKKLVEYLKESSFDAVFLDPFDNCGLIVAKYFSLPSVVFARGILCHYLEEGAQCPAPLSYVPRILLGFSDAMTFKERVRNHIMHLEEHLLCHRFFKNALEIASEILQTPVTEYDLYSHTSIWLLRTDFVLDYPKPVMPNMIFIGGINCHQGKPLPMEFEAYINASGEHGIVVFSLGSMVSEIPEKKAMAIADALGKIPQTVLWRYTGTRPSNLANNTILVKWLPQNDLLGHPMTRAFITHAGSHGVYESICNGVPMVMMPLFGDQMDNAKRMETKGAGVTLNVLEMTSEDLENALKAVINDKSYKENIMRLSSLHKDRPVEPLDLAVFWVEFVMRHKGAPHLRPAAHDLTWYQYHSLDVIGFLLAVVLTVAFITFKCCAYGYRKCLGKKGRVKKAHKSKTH
The series can be described thus: Glucuronide production in resting S. cerevisiae AH22 cells co-expressing UDPGDH and UGT1A9. Format: cell-based. As to the method: as §1

Series [5] deals with T5, hUGT1A7 (Homo sapiens, UniProt Q9HAW7).
T5 construct: expressed in transfected cells; host or cells: Saccharomyces cerevisiae AH22
T5 sequence (Q9HAW7 26-530): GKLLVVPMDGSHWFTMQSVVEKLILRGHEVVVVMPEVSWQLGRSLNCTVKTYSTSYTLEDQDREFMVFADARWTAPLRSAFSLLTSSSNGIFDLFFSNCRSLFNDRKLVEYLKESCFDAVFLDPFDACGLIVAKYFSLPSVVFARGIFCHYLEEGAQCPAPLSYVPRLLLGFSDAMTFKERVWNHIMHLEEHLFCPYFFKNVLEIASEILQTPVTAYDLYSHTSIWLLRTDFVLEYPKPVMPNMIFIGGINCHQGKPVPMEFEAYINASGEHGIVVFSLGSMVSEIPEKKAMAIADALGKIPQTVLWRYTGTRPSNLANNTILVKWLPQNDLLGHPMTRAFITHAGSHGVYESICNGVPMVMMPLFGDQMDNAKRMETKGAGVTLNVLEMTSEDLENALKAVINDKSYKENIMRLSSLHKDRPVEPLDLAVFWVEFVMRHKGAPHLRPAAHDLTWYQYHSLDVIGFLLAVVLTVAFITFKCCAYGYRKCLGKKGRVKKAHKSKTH
Nature of the series: Glucuronide production in resting S. cerevisiae AH22 cells co-expressing UDPGDH and UGT1A7. Format: cell-based. To be noted: UGT1A7 with At.UDPGDH; 7-hydroxycoumarine substrate, 30° C., 24 hrs. As to the method:
as §1

Series [6] deals with T6, hUGT1A8 (Homo sapiens, UniProt Q9HAW9).
T6 construct: expressed in transfected cells; host or cells: Saccharomyces cerevisiae AH22
T6 sequence (Q9HAW9 26-530): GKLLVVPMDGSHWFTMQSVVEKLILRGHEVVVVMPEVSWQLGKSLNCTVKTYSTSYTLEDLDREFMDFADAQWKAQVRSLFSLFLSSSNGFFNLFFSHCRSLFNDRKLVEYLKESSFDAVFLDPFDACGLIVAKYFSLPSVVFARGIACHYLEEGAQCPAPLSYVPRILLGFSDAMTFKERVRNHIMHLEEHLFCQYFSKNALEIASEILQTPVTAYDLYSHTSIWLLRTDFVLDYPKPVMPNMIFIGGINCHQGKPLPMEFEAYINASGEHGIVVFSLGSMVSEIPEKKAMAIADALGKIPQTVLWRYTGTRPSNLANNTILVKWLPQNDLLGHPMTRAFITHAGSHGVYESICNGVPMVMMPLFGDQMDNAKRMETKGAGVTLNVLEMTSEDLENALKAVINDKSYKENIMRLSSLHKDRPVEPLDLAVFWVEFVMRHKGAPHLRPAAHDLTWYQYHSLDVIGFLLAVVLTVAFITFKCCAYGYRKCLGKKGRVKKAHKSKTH
The series can be described thus: Glucuronide production in resting S. cerevisiae AH22 cells co-expressing UDPGDH and UGT1A8. Format: cell-based. Here is the method: as §1

Series [7] addresses T2, hUGT1A1. The series can be described thus: Glucuronide production in resting S. cerevisiae AH22 cells co-expressing UDPGDH and UGT1A1. To be noted: UGT1A1 with At.UDPGDH; 7-hydroxycoumarine substrate, 30° C., 24 hrs.
Description: as §2, §3, §4, §5
The target of series [8] is T7, UGT1A10 (Homo sapiens, UniProt Q9HAW8).
T7 construct: expressed in transfected cells; host or cells: Saccharomyces cerevisiae AH22
T7 sequence (Q9HAW8 26-530): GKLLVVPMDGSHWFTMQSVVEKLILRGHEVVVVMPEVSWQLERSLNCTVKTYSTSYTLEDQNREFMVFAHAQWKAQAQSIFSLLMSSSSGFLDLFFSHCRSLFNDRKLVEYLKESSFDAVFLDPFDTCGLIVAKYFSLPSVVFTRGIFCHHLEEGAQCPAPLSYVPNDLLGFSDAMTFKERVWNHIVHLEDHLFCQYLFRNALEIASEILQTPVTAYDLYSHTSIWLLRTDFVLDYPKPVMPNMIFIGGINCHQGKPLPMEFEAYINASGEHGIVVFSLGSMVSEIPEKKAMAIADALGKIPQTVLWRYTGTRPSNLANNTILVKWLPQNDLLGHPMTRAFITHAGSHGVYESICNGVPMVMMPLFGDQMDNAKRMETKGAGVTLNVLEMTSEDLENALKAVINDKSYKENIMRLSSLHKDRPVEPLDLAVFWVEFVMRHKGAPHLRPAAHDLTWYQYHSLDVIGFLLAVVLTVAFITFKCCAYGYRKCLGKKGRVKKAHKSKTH
The series can be described thus: Acyl glucuronide production in resting S. cerevisiae cells co-expressing UDPGDH and UGT1A10. Format: cell-based. Conditions: 1 mM mefenamic acid. Here is the method:
as §1

In the case of `O=c1ccc2ccc(O)cc2o1` [7OHC, 7-hydroxycoumarine, reference compound], in series [1] (0.5 mM 7OHC, after 24 hrs), the “conversion to glucuronide, time course (FIG. 6)” value was “complete conversion”. The “conversion to glucuronide, glucose dependence (FIG. 7)” value in series [1] (at 8% (w/v) glucose) was “complete conversion”.
`O=c1c(O)c(-c2ccc(O)c(O)c2)oc2cc(O)cc(O)c12` [Quercetin, quercetin]: the “site of glucuronidation (FIG. 9)” value in series [2] is reported as “preferential production of querecetin glucuronide at 3′ phenolic hydroxyl group in B ring”.
On to `O=C(O)[C@H]1O[C@H](OP(=O)(O)OP(=O)(O)OC[C@H]2O[C@@H](n3ccc(=O)[nH]c3=O)[C@H](O)[C@@H]2O)[C@H](O)[C@@H](O)[C@@H]1O` [UDP-glucuronic acid], for which the “concentration of endogenous UDP-glucuronic acid in yeast cells” value in series [3] is 4 to 5 mM.
Turning to `O=C(O)[C@H]1O[C@@H](Oc2ccc3ccc(=O)oc3c2)[C@H](O)[C@@H](O)[C@@H]1O` [glucuronide of 7-hydroxycoumarine, 7-hydroxycoumarine glucuronide], the “production of glucuronide (FIG. 5)” value is on record as “observed” in series [4]; “observed” in series [5]; “observed” in series [1] (UGT1A6 with At.UDPGDH, 7-hydroxycoumarine substrate, 30° C., 24 hrs); “observed” in series [6] (UGT1A8 with At.UDPGDH, 7-hydroxycoumarine substrate, 30° C., 24 hrs); “observed” in series [7]. The productivity of glucuronide in series [1] (optimal conditions, cells expressing UDPGDH and UGT1A6) was 200 mg per liter of reaction solution.
Consider `Cc1cccc(Nc2ccccc2C(=O)O[C@@H]2O[C@H](C(=O)O)[C@@H](O)[C@H](O)[C@H]2O)c1C` [mefenamic acid acyl glucuronide], for which the “acyl glucuronide formation (FIG. 11)” value in series [8] is listed as “significant activity”; in series [6] (1 mM mefenamic acid, UGT1A8), “significant activity”.
For `COc1c(C)c2c(c(O[C@@H]3O[C@H](C(=O)O)[C@@H](O)[C@H](O)[C@H]3O)c1C/C=C(\C)CCC(=O)O)C(=O)OC2` [mycophenolic acid glucuronide], the “production of glucuronide (FIG. 10)” value in series [4] (0.2 mM mycophenolic acid, 8% glucose, 30° C., 24 hrs) is reported as “confirmed”.
Regarding `COc1c(C)c2c(c(O[C@@H]3O[C@H](C(=O)O)[C@@H](O)[C@H](O)[C@H]3O)c1C/C=C(\C)CCC(=O)O)C(=O)OC2` [mycophenolic-O-glucuronide], the “site of glucuronidation (FIG. 10)” value in series [4] (0.2 mM mycophenolic acid, UGT1A9) is “preferential production”.
